Test results from ChEMBL document CHEMBL1156375, “Isolation and structure determination of novamethymycin, a new bioactive metabolite of the methymycin biosynthetic pathway in Streptomyces venezuelae” (2001).

Tested on: Bacillus subtilis
Test: Antibacterial activity against Bacillus subtilis ATCC 6633 at 100 ug/disk after 10 hrs by disk diffusion assay
Assay type: functional
Conditions: ATCC 6633, 10 h, read-out: DIZ

Row | Structure (SMILES) | zone of inhibition at 100 µg/disc
1 | C[C@@H]1C[C@H](N(C)C)[C@@H](O)[C@H](O[C@H]2[C@@H](C)C[C@@H](C)C(=O)/C=C/[C@](C)(O)[C@@H]([C@@H](C)O)OC(=O)[C@@H]2C)O1 [NOVAMETHYMYCIN] | 18 mm
2 | CC[C@H]1OC(=O)[C@H](C)[C@@H](O[C@@H]2O[C@H](C)C[C@H](N(C)C)[C@H]2O)[C@@H](C)C[C@@H](C)C(=O)/C=C/[C@]1(C)O [METHYMYCIN] | 18 mm
3 | CC[C@H]1OC(=O)[C@H](C)[C@@H](O[C@@H]2O[C@H](C)C[C@H](N(C)C)[C@H]2O)[C@@H](C)C[C@@H](C)C(=O)/C=C/[C@H]1C | 16 mm
4 | C[C@@H]1C[C@H](N(C)C)[C@@H](O)[C@H](O[C@H]2[C@@H](C)C[C@@H](C)C(=O)/C=C/[C@@H](C)[C@@H]([C@@H](C)O)OC(=O)[C@@H]2C)O1 [NEOMETHYMYCIN] | 20 mm
